From US20240368145A1, “METHODS FOR TREATING CANCER” (IMMUNIC AG, priority 2021, published 2024)

Tests used:
Assay type in all cases: cell-based
[1] = system: KLK3 mRNA; test: Expression of AR target genes (qRT-PCR) in 22Rv1: KLK3; details: 22Rv1, 1 μM, 48h; relative to vehicle control (DMSO)
Description: (§1) The prostate cancer cell line 22Rv1 was treated for 48h with 1 μM Example compound 1, 1/1, 2/1, 2/2, 2/3, 2/4, 2/5, 2/6, 2/7, 2/8, 2/9 and 2/10 and reference compounds SR2211 and XY018. RNA was extracted using the RNA isolation kit XS (Macherey-Nagel) and following the manufacture's manual. RNA quantity was measured with the Nanodrop before reverse transcription using Superscript II (Invitrogen #100004925). For the quantitative real-time PCR with SYBR-Green (Qiagen #204074), the following primers were used:
(§2) qRT-PCR was performed using SYBR-Green (Qiagen #204074) reagents in a PCR cycler (Gorbett Research) Rotor Gene RG3000 with the following program: denaturation for 5′ at 95° C.; 40 cycles of 20″ at 95° C. and 15″ at 60° C.″ and at the end of the last cycle, the melting temperature of the products was determined by gradually increasing from 60° C. to 99° C. CT values from all samples were normalized to reference (housekeeping) genes using the mean CT value of the GAPDH and YWHAZ (reference genes). Next the values are put relative to the untreated control (vehicle/DMSO).

[2] = system: NKX3.1 mRNA; test: Expression of AR target genes (qRT-PCR) in 22Rv1: NKX3.1; details: Homo sapiens; 22Rv1, 1 μM, 48h; relative to vehicle control (DMSO)
Description: as §1, §2

[3] = system: FKBP5 mRNA; test: Expression of AR target genes (qRT-PCR) in 22Rv1: FKBP5; details: Homo sapiens; 22Rv1, 1 μM, 48h; relative to vehicle control (DMSO)
Description: as §1, §2

[4] = system: ATAD2/ANCCA mRNA; test: Expression of AR target genes (qRT-PCR) in 22Rv1: ATAD2/ANCCA; details: 22Rv1, 1 μM, 48h; relative to vehicle control (DMSO)
Description: as §1, §2

[5] = system: CCRFCEM (ALL); test: Oncotest inhibition of viability, CCRFCEM; details: Homo sapiens, CCRF-CEM; ALL cell line CCRFCEM; read-out: IC50 range
[6] = system: CCRFCEM/VCR (ALL); test: Oncotest inhibition of viability, CCRFCEM/VCR; details: Homo sapiens, CCRF-CEM; ALL cell line CCRFCEM/VCR; read-out: IC50 range
[7] = system: MOLT4 (ALL); test: Oncotest inhibition of viability, MOLT4; details: Homo sapiens, MOLT-4; ALL cell line MOLT4; read-out: IC50 range
[8] = system: JURKAT (ALL); test: Oncotest inhibition of viability, JURKAT; details: Homo sapiens; ALL cell line JURKAT; read-out: IC50 range
[9] = system: HL60 (AML); test: Oncotest inhibition of viability, HL60; details: Homo sapiens, HL-60; AML cell line HL60; read-out: IC50 range
[10] = system: KG1 (AML); test: Oncotest inhibition of viability, KG1; details: AML cell line KG1; read-out: IC50 range
[11] = system: NOMO1 (AML); test: Oncotest inhibition of viability, NOMO1; details: Homo sapiens, NOMO-1; AML cell line NOMO1; read-out: IC50 range
[12] = system: OCIAML2 (AML); test: Oncotest inhibition of viability, OCIAML2; details: Homo sapiens, OCI-AML2; AML cell line OCIAML2; read-out: IC50 range
[13] = system: PL21 (AML); test: Oncotest inhibition of viability, PL21; details: PL-21; AML cell line PL21; read-out: IC50 range
[14] = system: MV411 (AML); test: Oncotest inhibition of viability, MV411; details: Homo sapiens, MV4-11; AML cell line MV411; read-out: IC50 range
[15] = system: EM2 (CML); test: Oncotest inhibition of viability, EM2; details: CML cell line EM2; read-out: IC50 range
[16] = system: JURLMK1 (CML); test: Oncotest inhibition of viability, JURLMK1; details: CML cell line JURLMK1; read-out: IC50 range
[17] = system: K562 (CML); test: Oncotest inhibition of viability, K562; details: Homo sapiens; CML cell line K562; read-out: IC50 range
[18] = system: KCL22 (CML); test: Oncotest inhibition of viability, KCL22; details: Homo sapiens, KCL-22; CML cell line KCL22; read-out: IC50 range
[19] = system: MEG01 (CML); test: Oncotest inhibition of viability, MEG01; details: Homo sapiens, MEG-01; CML cell line MEG01; read-out: IC50 range
[20] = system: RAJI (NHL); test: Oncotest inhibition of viability, RAJI; details: Homo sapiens; NHL cell line RAJI; read-out: IC50 range
[21] = system: HUT78 (NHL); test: Oncotest inhibition of viability, HUT78; details: Homo sapiens; NHL cell line HUT78; read-out: IC50 range
[22] = system: MYLA (NHL); test: Oncotest inhibition of viability, MYLA; details: NHL cell line MYLA; read-out: IC50 range
[23] = system: U937 (NHL); test: Oncotest inhibition of viability, U937; details: Homo sapiens, U-937; NHL cell line U937; read-out: IC50 range
[24] = system: RPMI8226 (MM); test: Oncotest inhibition of viability, RPMI8226; details: Homo sapiens, RPMI-8226; MM cell line RPMI8226; read-out: IC50 range
[25] = system: L363 (MM); test: Oncotest inhibition of viability, L363; details: Homo sapiens, L-363; MM cell line L363; read-out: IC50 range
[26] = system: IM9 (MM); test: Oncotest inhibition of viability, IM9; details: MM cell line IM9; read-out: IC50 range
[27] = system: LP1 (MM); test: Oncotest inhibition of viability, LP1; details: MM cell line LP1; read-out: IC50 range
[28] = system: NCIH929 (MM); test: Oncotest inhibition of viability, NCIH929; details: Homo sapiens, NCI-H929; MM cell line NCIH929; read-out: IC50 range
[29] = system: 24 different hematological cell lines; test: Inhibition of viability in 24 different hematological cell lines (mean); details: mean over 24 different hematological cell lines; read-out: geometrical mean IC50, inhibition of viability

Q: Which results are given for `CC(C)(O)CCn1ncc(-c2onc(-c3c(F)cccc3Cl)c2-c2ncccn2)c1C(F)(F)F` [2/8]?
A: KLK3 mRNA expression [1]: 1.152; mrna remaining at 1 µM [2]: 29.3%; mrna remaining at 1 µM [3]: 38.1%; ATAD2/ANCCA mRNA expression [4]: 0.817

Q: With `COC(=O)c1c(-c2c(F)cccc2Cl)noc1-c1cnn(-c2cccc(Cl)c2)c1C(F)(F)F` [Example 1, Methyl 3-(2-chloro-6-fluorophenyl)-5-(1-(3-chlorophenyl)-5-(trifluoromethyl)-1H-pyrazol-4-yl)isoxazole-4-carboxylate] as the compound, how does the IC50 [5] read?
A: Its IC50 is 10 to 100 nM.

Q: And the IC50 [6]?
A: Its IC50 is 10 to 100 nM.

Q: And the IC50 [7]?
A: Its IC50 is less than 10 nM.

Q: What about the IC50 [8] of the same compound?
A: The IC50 was less than 10 nM.

Q: And the IC50 [9]?
A: The IC50 was less than 10 nM.

Q: And the IC50 [10]?
A: Its IC50 is less than 10 nM.

Q: What about the IC50 [11] of the same compound?
A: The IC50 was 100 to 1000 nM.

Q: And the IC50 [12]?
A: Its IC50 is 10 to 100 nM.

Q: What about the IC50 [13] of the same compound?
A: Its IC50 is 100 to 1000 nM.

Q: And the IC50 [14]?
A: Its IC50 is less than 10 nM.

Q: And the IC50 [15]?
A: The IC50 was 10 to 100 nM.

Q: What about the IC50 [16] of the same compound?
A: The IC50 was less than 10 nM.

Q: What about the IC50 [17] of the same compound?
A: The IC50 was no less than 1000 nM.

Q: What about the IC50 [18] of the same compound?
A: Its IC50 is 10 to 100 nM.

Q: And the IC50 [19]?
A: Its IC50 is no less than 1000 nM.

Q: What about the IC50 [20] of the same compound?
A: Its IC50 is less than 10 nM.

Q: And the IC50 [21]?
A: Its IC50 is less than 10 nM.

Q: And the IC50 [22]?
A: Its IC50 is 100 to 1000 nM.

Q: And the IC50 [23]?
A: The IC50 was 10 to 100 nM.

Q: What about the IC50 [24] of the same compound?
A: Its IC50 is less than 10 nM.

Q: And the IC50 [25]?
A: The IC50 was less than 10 nM.

Q: And the IC50 [26]?
A: The IC50 was less than 10 nM.

Q: What about the IC50 [27] of the same compound?
A: The IC50 was 10 to 100 nM.

Q: And the IC50 [28]?
A: The IC50 was less than 10 nM.

Q: And the IC50 [29]?
A: Its IC50 is less than 25 nM.
